Where no end group is shown, it is not given here.
Assays:
neural crest cells = assay: Emigration of neural crest cells from explanted neural primordia; type: cell-based, quail
From the text: The procedure for explants of neural primordia is described in greater detail in Sela-Donefeld and Kalcheim (Development, 125(21): 4749-4762 (1999)), the teaching of which was incorporated herein by reference.
The trunk region of 16 somite-old quail embryos was separately sectioned at the level of the segmental plate plus the last 2 epithelial somite pairs. Neural primordia consisting of the neural tube and premigratory neural crest cells were isolated from adjacent tissues with 25% pancreatin in PBS, transferred to PBS supplemented with 5% newborn calf serum to stop enzymatic activity and washed in serum-free culture medium prior to explanation. The neural primordia were then explanted onto multi-well chamber slides that were pre-coated with fibronectin (50 μg/ml) for 1 hour. The neural primordia were cultured in 50 μl of either serum-free CHO—S-SFMII medium (GibcoBRL, USA) or condition medium of noggin producing-CHO cells, in the absence or presence of the tested compound, in a final concentration of 5 μM and incubated in a humid chamber for 24 hours. At the end of the incubation, the primordia were gently washed with PBS and fixed with Bouin's fluid, washed 3 times with PBS, dried and covered.

p38-MAP = assay: Western blot, phosphorylation of downstream substrate p38-MAP; type: cell-based, rat; conditions: dose dependent, compared with insulin, FIG. 10
Protocol: (§1) All experiments were carried out with H4 cells (Rat hepatoma cell line).Cells were pre-incubated with the compound K094A107 comprising an IRK-derived peptide (SEQ ID NO: 102)(10mM) or the corresponding controls for 3 hours ( one control was control -no treatment vehicle only, the second control was an irrelevant peptide derived from a non-A-region of a kinase), and with human recombinant insulin (100 nM), for 5 minutes. The cells were then lysed and cell lysates were subjected to Western Blot analysis followed by detection with ECL.
(§2) The membrane was incubated overnight with a primary polyclonal Anti-PhosphoPKB (phospho-serine 473 PKB)Ab, or with an antibody for IRK and then, after 3 washes with TBST, with secondary HRP antibody was added for 1 hour. In the second gel the membrane was incubated overnight with a primary monoclonal PhosphoTyrosine Kinase (PY99) Ab that labels phosphorylated tyrosine, and then after 3 washes with TBST, a secondary antibody was added for 1 hour.
(§3) A similar experiment was conducted with the difference being that the substrates tested were the substrates of the kinase associated signal transduction that are more downstream in the pathway: Erk1, and p38-MAP.

IRK = assay: Western blot, phosphorylation of IRK in H4 cells; type: cell-based, rat; design: dose or concentration left out as unconfirmed; conditions: pre-incubated 3 hours with compound, FIG. 9
Protocol: as §1, §2

Erk1 = assay: Western blot, phosphorylation of downstream substrate Erk1; type: cell-based, rat; conditions: dose dependent, compared with insulin, FIG. 10
Protocol: as §1, §2, §3

PKB = assay: Western blot, phosphorylation of PKB in H4 cells; type: cell-based, rat; design: dose or concentration left out as unconfirmed; conditions: pre-incubated 3 hours with compound, phospho-serine 473, FIG. 9
Protocol: as §1, §2

adipose cells = assay: Glucose uptake (3H-deoxy glucose) in fresh rat adipocytes; type: cell-based; conditions: for glucose uptake: 10 μM compound, fresh adipocytes, without insulin, vs control (vehicle)
Protocol: To 3 ml of KRBH buffer with 10 mg collagenase, 3g epididymal fat pad (from 2-3 male rats lightly ether anesthesised and then decapitated) was introduced. The fat was cut up with scissors. The pieces of fat were swirled and shaken in the collagenase solution in a 37° C. water bath, set at 100-150 repetitions/minute, for approximately 1 hour with swirling every 15 minutes while digesting and every 5 minutes towards the end. About 6 ml of buffer was then added to the vial. The content of the vial was gently squeezed through a 250 μ nylon mesh into a 50 ml plastic tube. The residual fat tissue was washed (the total volume for each wash was 15 ml): the tube was centrifuged whereby the adipose cells floated at the top of the liquid. The buffer was removed using a syringe with polyethylene capillary. Buffer was added to get 15 ml and clumps of adipose cells were broken up by gently mixing up and down. This procedure was repeated for a total of 4 centrifugations: 3 centrifugations at 1000 rpm with the last centrifugation at 2000 rpm. At this point, the buffer was removed. Fresh buffer was added to the cell suspension to form a cytocrit of 5-10%. The cells were rolled at 10 rpm at 37° C. for 1 hour.
50 μl 0.1% BSA in PBS was placed with compounds comprising IRK-derived peptides (final concentrations: 0.1-50 μM) or the peptide-vehicle in each 2 ml plastic tube in duplicates. 950 μl aliquots of the cell suspension were added to the tubes. After incubation for 1 hour at 37° C. in a roller (10 rpm), 200 ul of insulin was added to certain tubes to get final concentrations of 2.5-1000 uU/ml and than 200 μl of KRBH buffer containing 3H—Deoxy Glucose (approx. 1200 dpm/μl) was added to each tube. After 30 minutes incubation with the 3H-DOG and insulin at 37° C., 200 μl aliquots were transferred to microcentrifuge tubes containing 200 μl Dinonyl phthalate in duplicates. Cells were rapidly separated from the aqueous buffer by centrifugation at 10,000 g for 60 sec. The cells were isolated in the top layer of the dinonyl phthalate phase. The upper part of the tube (which contains the cells) was cut and transferred to scintillation tube. 4 ml of scintillation liquid was added.
Cell associated radioactivity was counted in a liquid scintillation beta counter.
Glucose-uptake was measured in fresh adipocytes, incubated with or without insulin (10 μ/ml) as described above, in the absence (vehicle) or the presence of 10 μM of a compound K094A107 (“107”) SEQ ID NO: 102; or K094A205 (“205”) (SEQ ID NO: 123), which was kept in a reducing environment (5 to 25 μM DTT) As a comparison the glucose uptake with insulin alone was determined.

IRK substrates = assay: Western blot of FIG. 10 as worded in the figure legend; type: cell-based, rat; conditions: FIG. 10 legend
Protocol: as §1, §3

male Sabra rats = assay: Blood glucose in streptozotocin-induced diabetic rats; type: in vivo, rat; conditions: 10 mg/animal I.P., insulin 0.125 units/animal one hour later
Protocol: Diabetes was induced in male Sabra rats (150-200 gr) by I.P. injection of streptozotocin (Sigma, S0130) 60 mg/Kg dissolved in ph 4.5 saline (Biochemical and biophysical research comunications 197(3): 1549-1555 (1993)), which is known to destroy insulin-secreting pancreatic cells. After 2-7 days the rats were all diabetic, as determined by blood glucose level above 200 mg/dl which was measured with glucometer.
12 rats were divided into 3 groups, with homogenic blood glucose level, each consisting of 4 animals
Group I was administered with K094A107 (SEQ ID NO: 102) 10 mg/animal (I.P.) followed by administration of insulin 0.125 units/animal (low concentration of insulin that nearly doesn't give any significant decrease in blood glucose level) one hour later.
Group II was administered with K094A205 (A-region in SEQ ID NO: 123) 10 mg/animal (I.P.) followed by insulin 0.125 units/animal one hour later.
Group III served as control and was administered I.P. with vehicle (NAC/DMSO-DIDV) followed by insulin 0.125 units/animal one hour later.

K098A100: compound comprising ALK-3-derived A-region peptide (GLMRHENILGF; Alk3)
neural crest migration in the presence of noggin (neural crest cells; 5 μM compound, 24 hours, condition medium of noggin producing-CHO cells): overcomes this inhibition and induces neural crest migration
number of migrating neural crest cells (neural crest cells; 5 μM compound, 24 hours, serum-free medium, absence of noggin): the number of migrating cells is higher

K094A107: compound comprising an IRK A-region derived peptide, N-myristylated and C-amidated (GGFTCHHVVRL-NH2; not fully specified (N-terminus))
phosphorylation of p38-MAP (p38-MAP): increase the phosphorylation of ERK1 and p38-MAP in a dose dependent manner
phosphorylation of IRK (IRK): able to increase phosphorylation
phosphorylation of ERK1 (Erk1): increase the phosphorylation of ERK1 and p38-MAP in a dose dependent manner
phosphorylation of PKB (PKB): able to increase phosphorylation
glucose uptake in combination with insulin (adipose cells; 10 μM compound in the presence of 10 μU/ml insulin): synergistic
glucose uptake (adipose cells): increase glucose uptake levels beyond the level of control glucose uptake
glucose uptake, dose dependence (adipose cells; different concentrations of the compound (FIG. 6B)): induce glucose uptake in a dose-dependent manner
phosphorylation of IRK substrates (IRK substrates): decrease of phosphorylation of IRK substrates, in a dose dependent manner

K094A205: compound comprising IRK A-region derived sequence, kept in a reducing environment (GGFTCHHVVRL; IRK)
time at which effect of a single administration on blood glucose was still notable (male Sabra rats): ≥ 24 h
glucose blood levels (male Sabra rats; measured for 24 hours, vs vehicle plus insulin): marked reduction
glucose uptake (adipose cells): increase glucose uptake levels beyond the level of control glucose uptake

B1: Noggin: specific inhibitor of BMP-4; condition medium of noggin producing-CHO cells (protein, UniProt Q13253 28-232, looked up)
Noggin: QHYLHIRPAPSDNLPLVDLIEHPDPIFDPKEKDLNETLLRSLLGGHYDPGFMATSPPEDRPGGGGGAAGGAEDLAELDQLLRQRPSGAMPSEIKGLEFSEGLAQGKKQRLSKKLRRKLQMWLWSQTFCPVLYAWNDLGSRFWPRYVKVGSCFSKRSCSVPEGMVCKPSKSVHLTVLRWRCQRRGGQRCGWIPIQYPIISECKCSC
modifications: CHO conditioned medium
notes: condition medium of noggin producing-CHO cells
neural crest migration (neural crest cells; noggin alone, no compound): blocks the neural crest migration

From patent US20020137141A1, “Short peptides from the 'A-region' of protein kinases which selectively modulate protein kinase activity” (Children's Medical Center Corporation, priority 2000, published 2002)
